Measurements as given in patent publication US5529983A, “Use of small peptides in the treatment of psoriasis” (The United States of America as represented by the …, priority 1995, dated 1996).

How the values were obtained:
[1] = Six-week intravenous toxicity study in hamsters; assay type: in vivo
Text: [D-ala^1 ]peptide-T-amide was given twice daily intravenously to hamsters for six weeks. […] Liver enzymes and kidney enzymes were normal after injection.

[2] = Toxicity of peptide treatment in human patients; assay type: in vivo
Text: Toxicity. As to toxicity, the complete schedule of peptide therapeutic agents above gave negative evidence of toxicity.

[3] = after injection twice daily intravenously for six weeks

Structure (SMILES)	Liver enzymes [1, 3]	kidney enzymes [1, 3]	histologic studies on all organs ([1]; twice daily intravenously for six weeks)	toxicity in the liver or kidney ([2]; In humans)	toxicity ([2]; preliminary findings, blood pressure fell when the infusion rate was increased)
C[C@@H](N)C(=O)N[C@@H](CO)C(=O)N[C@H](C(=O)N[C@H](C(=O)N[C@H](C(=O)N[C@@H](CC(N)=O)C(=O)N[C@@H](Cc1ccc(O)cc1)C(=O)N[C@H](C(N)=O)[C@@H](C)O)[C@@H](C)O)[C@@H](C)O)[C@@H](C)O [[D-ala^1]peptide-T-amide]	normal	normal	no significant difference		
C[C@H](N)C(=O)N[C@@H](CO)C(=O)N[C@H](C(=O)N[C@H](C(=O)N[C@H](C(=O)N[C@@H](CC(N)=O)C(=O)N[C@@H](Cc1ccc(O)cc1)C(=O)N[C@H](C(=O)O)[C@@H](C)O)[C@@H](C)O)[C@@H](C)O)[C@@H](C)O [Peptide T]				no toxicity apparent	non-toxic with the exception of lowering the blood pressure on one occasion
